From US20240108610A1, “RECTAL ADMINISTRATION OF ROFLUMILAST FOR THE TREATMENT OF CROHN'S DISEASE” (King Abdulaziz University, priority 2022, published 2024)

What was measured:
[1] = oral; cited from earlier work
[2] = test system: dextran sulphate sodium (DSS)-induced colitis; conditions: oral, 1 or 5 mg·kg−1·day−1, mice; cited from earlier work
[3] = test system: GSH; experiment: Colonic GSH in colonic tissue homogenates, TNBS-induced colitis; assay type: in vivo, rat; conditions: oral, once daily for 15 days; SS 500 mg/kg, OR 5 mg/kg; means±SE, n = 8
Protocol: Chronic colitis was induced by weekly rectal injections of increasing doses of TNBS over 6 weeks (15, 30, 45, 60, 60, and 60 mg from day 0 to day 35), as previously described (4,12). Briefly, after food deprivation for 24 h, rats were anesthetized with an intraperitoneal injection of 1% isoflurane. TNBS was dissolved in ethanol (50%) and instilled into the colon using a cannula (0.25 mL), and then the rats were held upside down for 3 min to prevent escape of the intracolonic TNBS. Roflumilast was dissolved in dimethyl sulfoxide and diluted in 0.5% carboxymethyl cellulose sodium to a final concentration of 5.0 mg·kg^−1·day^−1 as previously described (13). Five groups of rats (n=8) were established: normal control (NC group), TNBS-treated (TNBS group, positive control), and three TNBS-treated groups that received oral sulfasalazine (SS group, 500 mg/kg) (14), oral roflumilast (by gastric gavage, OR group, 5 mg/kg), or rectal roflumilast (RR group, 5 mg/kg). […] At the end of the treatment period, the rats were evaluated with the colitis activity score. […] At the end of the 15-day treatment period, the rats were sacrificed by cervical dislocation, and the colon was isolated, cleaned of feces, and measured for weight and length. Colonic myeloperoxidase (MPO) activity and glutathione (GSH) and malonaldehyde (MDA) levels were measured. […]

SMILES	side effects [1]	Colonic length [2]	colonic TNF-α production [2]	disease clinical score (weight loss, stool consistency, and hemorrhage) [2]	histological score [2]	colonic level of GSH [3]
O=C(Nc1c(Cl)cncc1Cl)c1ccc(OC(F)F)c(OCC2CC2)c1 [roflumilast]	weight loss, headache, nausea, emesis, and diarrhea	dose-dependently improved	dose-dependently improved	dose-dependently improved	not improved	–
O=C(O)c1cc(/N=N/c2ccc(S(=O)(=O)Nc3ccccn3)cc2)ccc1O [sulfasalazine]	–	–	–	–	–	14.73 ± 0.49^h, i mmol/mg
